From paper PMC5937082, “Prediction of Lipophilicity and Pharmacokinetics of Chloroacetamides by Chemometric Approach” (Iranian Journal of Pharmaceutical Research : IJPR, 2018)

Test: Lipophilicity by reversed-phase thin-layer chromatography (RPTLC, RP-18W/UV254 plates)
Type: physicochemical
Conditions: φ = 0.34 - 0.56 v/v, room temperature
Description: During chromatographic examinations commercial plates (RP-18W/UV254 Macherey-Nagel GmBH and Co., Duren, Germany) were used as the stationary phase. Mixtures of LC grade organic modifiers (J. T. Baker, Deventer, the Netherlands) and filtered bi-distilled water were used as the mobile phase.
The tested chloroacetamides were dissolved in ethanol (analytical purity) in concentration 2 mg mL^–1. About 0.2 µL of freshly prepared solution of each compound was spotted on the plates which were then developed by the ascending technique in the unsaturated chambers at room temperature with an aqueous solutions of two organic modifiers: methanol (φ = 0.34 - 0.56, v/v) and acetone (φ = 0.34 - 0.56, v/v). The visualization of the tested compounds on the dried developed plates was performed under a UV light at λ= 254 nm. In both applied modifiers for each composition three chromatograms were developed and then the average Rf values were calculated.
From the experimentally obtained Rf values, for each composition of the mobile phase, RM values were calculated according to the Equation: […]
The relationships between the retention values, RM, of the compound and the volume fraction of the organic modifier in the mobile phase, φ, were given by:
Where intercept, RM^0, represents the chromatographic retention constant, while the slope of the linear plot, m, which is the change in RM is caused by the unit of the organic modifier concentration in the mobile phase and depends on the properties of the solute. Commonly, it is related to the specific hydrophobic surface area of the compound ([39]). Chromatographic parameter m can be applied as alternative measure of lipophilicity, also ([40], [41]).Values of these parameters obtained for chloroacetamides in the used modifiers are given in Table 4.

SMILES	R M ^0 (chromatographic retention constant, intercept) (acetone-water mobile phase)	m (slope of RM vs φ) (acetone-water mobile phase)	R M ^0 (chromatographic retention constant, intercept) (methanol-water mobile phase)	m (slope of RM vs φ) (methanol-water mobile phase)
O=C(CCl)Nc1cccc(Br)c1 [Compound 3Br]	1.780 (±0.105)	-3.105 (±0.238)	1.958 (±0.115)	-3.151 (±0.251)
N#Cc1cccc(NC(=O)CCl)c1 [Compound 3CN]	1.186 (±0.101)	-2.278 (±0.218)	1.362 (±0.082)	-2.726 (±0.182)
O=C(CCl)Nc1ccc(Br)cc1 [Compound 4Br]	1.849 (±0.087)	-3.175 (±0.195)	1.951 (±0.100)	-3.137 (±0.218)
Cc1ccc(NC(=O)CCl)cc1 [Compound 4CH3]	1.370 (±0.097)	-2.583 (±0.220)	1.542 (±0.067)	-2.673 (±0.146)
N#Cc1ccc(NC(=O)CCl)cc1 [Compound 4CN]	1.074 (±0.117)	-2.033 (±0.263)	1.382 (±0.039)	-2.749 (±0.086)
CC(=O)c1ccc(NC(=O)CCl)cc1 [Compound 4COCH3]	1.118 (±0.077)	-2.396 (±0.173)	1.275 (±0.121)	-2.549 (±0.263)
O=C(CCl)Nc1ccc(Cl)cc1 [Compound 4Cl]	1.636 (±0.139)	-2.945 (±0.313)	1.788 (±0.140)	-2.944 (±0.306)
O=C(CCl)Nc1ccc(F)cc1 [Compound 4F]	1.341 (±0.042)	-2.440 (±0.095)	1.354 (±0.088)	-2.486 (±0.192)
O=C(CCl)Nc1ccc(I)cc1 [Compound 4I]	1.963 (±0.143)	-3.375 (±0.323)	2.124 (±0.122)	-3.282 (±0.266)
COc1ccc(NC(=O)CCl)cc1 [Compound 4OCH3]	1.130 (±0.115)	-2.431 (±0.258)	1.247 (±0.122)	-2.478 (±0.265)
O=C(CCl)Nc1ccc(O)cc1 [Compound 4OH]	0.763 (±0.030)	-1.865 (±0.068)	1.577 (±0.069)	-3.032 (±0.154)
O=C(CCl)Nc1ccccc1 [H]	1.106 (±0.132)	-2.225 (±0.285)	1.171 (±0.123)	-2.309 (±0.268)
